The target in this assay is T1, GLP-1R (Homo sapiens, UniProt P43220).
T1 construct: host or cells: GLP-1R CRE-bla CHO-K1 cells
Briefly: EC20 GLP-1(9-36) PAM cAMP assay: dose response of compound in the presence of fixed concentration of GLP-1(9-36). The class given is cell-based. The conditions noted are these: GLP-1R CRE-bla CHO-K1 cells, read-out: EC20 GLP-1(9-36) PAM EC50. In short, it runs like this: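 GLP-1R CRE-bla CHO-K1 cells treated 30 min at 37 °C with 12-point compound dose response plus fixed EC20 GLP-1(9-36), with IBMX, in HBSS/HEPES/0.1% BSA pH 7.4. Total cAMP measured by luminescent detection against standard curve; EC50 and Emax from non-linear regression.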

Where [1] appears, read: compound dose response with fixed concentration of GLP-1(9-36).
[2] abbreviates: dose response of compound in presence of fixed concentration of GLP-1(9-36).

Data on 22 compounds can be found in US10034886B2, “GLP-1 receptor modulators” (Celgene International II SÀRL, priority 2014, dated 2018).

Each structure is given as a SMILES string. Read-outs that look alike come from different tables or passages of the source. Where only a bound is given, the exact number is not on record here.

T1 sequence (P43220 24-463): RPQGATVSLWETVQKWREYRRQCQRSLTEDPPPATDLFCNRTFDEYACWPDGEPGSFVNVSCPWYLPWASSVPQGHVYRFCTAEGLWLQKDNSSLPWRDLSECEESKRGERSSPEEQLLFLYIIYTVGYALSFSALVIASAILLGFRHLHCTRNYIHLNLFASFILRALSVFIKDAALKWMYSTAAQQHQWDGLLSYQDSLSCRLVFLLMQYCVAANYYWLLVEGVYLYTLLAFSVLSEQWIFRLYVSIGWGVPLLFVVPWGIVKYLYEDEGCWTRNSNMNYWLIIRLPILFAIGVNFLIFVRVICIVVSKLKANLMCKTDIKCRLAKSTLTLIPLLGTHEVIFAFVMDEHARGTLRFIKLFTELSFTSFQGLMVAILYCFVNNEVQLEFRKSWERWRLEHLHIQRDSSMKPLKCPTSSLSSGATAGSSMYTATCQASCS
T1 sequence (P01275 100-127 partner limits assumed): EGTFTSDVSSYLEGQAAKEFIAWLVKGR

Take `CC(C)c1ccc(-c2ccc(-c3cnc(-c4ccc(C[C@H](NC(=O)c5ccc(C(C)(C)C)s5)C(=O)N5CC(C(=O)O)C5)cc4)nc3)c(F)c2)cc1` [Compound 1220]: the EC50 under setting [1] is below 800 nM.

Turning to `CCCCCCCOc1ccc(-c2cnc(-c3ccc(C[C@H](NC(=O)c4ccc(C(C)(C)C)s4)C(=O)NC4(C(=O)O)CC(F)(F)C4)cc3)nc2)cc1` [Compound 876], under setting [2], the EC50 lay within 800 to 2500 nM.

Turning to `CCCCCCCOc1ccc(-c2cnc(-c3ccc(CC(NC(=O)c4ccc(C(C)(C)C)s4)C(=O)Nc4cccc(C(=O)O)c4)cc3)nc2)cc1` (stereo not shown) [Compound 441], under setting [2], the EC50 was in the range of 800 to 2500 nM.

With `CCCCCCCOc1ccc(-c2cnc(-c3ccc(C[C@H](NC(=O)c4ccc(C(C)(C)C)cc4)C(=O)N[C@H](CCN)C(=O)O)cc3)nc2)cc1` [Compound 476], the EC50 under setting [2] was 2500 to 5000 nM.

On to `CCC[C@H]1CC[C@H](C2CCN(c3cnc(-c4ccc(C[C@H](NC(=O)c5ccc(C6CC6)cn5)C(=O)N5CC(C(=O)O)C5)cc4)nc3)CC2)CC1` [Compound 1538], for which the EC50 under setting [1] fell in the range of 800 to 2500 nM.

Regarding `CCOc1ccc(-c2cnc(-c3ccc(C[C@H](NC(=O)c4ccc(C(C)(C)C)s4)C(=O)O)cc3)nc2)cc1` [Compound 1349], the EC50 under setting [1] fell in the range of 5000 to 10000 nM.

Turning to `CC(C)c1ccc(-c2ccc(-c3cnc(-c4ccc(C[C@H](NC(=O)c5ccc(C(C)(C)C)s5)C(=O)O)cc4)nc3)c(F)c2)cc1` [Compound 1359], the concentration for a half-maximal effect (EC50) under setting [1] lay within 800 to 2500 nM.

`C[C@@H](NC(=O)[C@H](Cc1ccc(-c2ncc(-c3ccc4c(C5CCCCO5)c(O)ccc4c3)cn2)cc1)NC(=O)c1ccc(C(C)(C)C)s1)C(=O)O` (stereo partly shown) [Compound 1031]: the EC50 under setting [2] lay in the range of 2500 to 5000 nM.

As to `CC(C)(C)c1ccc(C(=O)N[C@@H](Cc2ccc(-c3ncc(-c4ccc(-c5ccc(C(F)(F)F)c(F)c5)cc4F)cn3)cc2)C(=O)N2CC(C(=O)O)C2)s1` [Compound 1217], the EC50 under setting [1] was below 800 nM.

For `CCCCCCCOc1ccc(-c2cnc(-c3ccc(C[C@H](NC(=O)c4ccc(C(C)(C)C)c(OC)c4)C(=O)N4CC(C(=O)O)C4)cc3)nc2)cc1` [Compound 1120], the EC50 under setting [2] was 2500 to 5000 nM.

As to `CCCCCCCOc1ccc(-c2cnc(-c3ccc(C[C@H](NC(=O)c4cnn(C(C)(C)C)c4)C(=O)N4CC(C(=O)O)C4)cc3)nc2)cc1` [Compound 1099], under setting [2], the EC50 fell in the range of 800 to 2500 nM.

Turning to `CSc1cccc(-c2cnc(-c3ccc(C[C@H](NC(=O)c4ccc(C(C)(C)C)s4)C(=O)N[C@H](C)C(=O)O)cc3)nc2)c1` [Compound 995], the EC50 under setting [2] lay in the range of 5000 to 10000 nM.

With `CCCCCCCOc1ccc(-c2cnc(-c3ccc(C[C@H](NC(=O)c4ccc(C(C)(C)C)c(OC)c4)C(=O)N4CC[C@H](C(=O)O)C4)cc3)nc2)cc1` [Compound 862], under setting [2], the EC50 lay within 800 to 2500 nM.

Consider `CCCCCCCOc1ccc(-c2cnc(-c3ccc(CC(NC(=O)c4ccc(C(C)(C)C)s4)C(=O)N[C@@H](CSSC[C@H](N)C(=O)O)C(=O)O)cc3)nc2)cc1` (stereo partly shown) [Compound 426], for which the EC50 under setting [2] was in the range of 800 to 2500 nM.

Take `CC(C)(C)c1ccc(C(=O)NC(Cc2ccc(-c3ncc(N4CCC(c5ccccc5F)CC4)cn3)cc2)C(=O)N2CC(C(=O)O)C2)s1` (stereo not shown) [Compound 1491]: the EC50 under setting [1] fell in the range of 800 to 2500 nM.

Take `CCCCCCCOc1ccc(-c2cnc(-c3ccc(C[C@H](NC(=O)c4ccc5c(c4)OCCO5)C(=O)N[C@H](C)C(=O)O)cc3)nc2)cc1` [Compound 980]: the EC50 under setting [2] lay in the range of 800 to 2500 nM.

For the compound `CC(C)(C)c1ccc(C(=O)N[C@@H](Cc2ccc(-c3ncc(-c4ccc(-c5ccccc5C(F)(F)F)cc4F)cn3)cc2)C(=O)N2CC(C(=O)O)C2)s1` [Compound 1223], the EC50 under setting [1] was below 800 nM.

In the case of `COc1ccc(-c2cnc(-c3ccc(C[C@H](NC(=O)c4ccc(C(C)(C)C)s4)C(=O)N[C@H](C)C(=O)O)cc3)nc2)cc1C12CC3CC(CC(C3)C1)C2` [Compound 1054], the EC50 under setting [2] lay within 2500 to 5000 nM.

`CC(C)(C)c1ccc(C(=O)N[C@@H](Cc2ccc(-c3ncc(N4CCC(c5ccc(Cl)cc5)CC4)cn3)cc2)C(=O)N2CC(C(=O)O)C2)s1` [Compound 1478]: under setting [1], the EC50 was 800 to 2500 nM.

With `CCC(CC)Oc1ccc(-c2cnc(-c3ccc(C[C@H](NC(=O)c4ccc(C(C)(C)C)s4)C(=O)N4CC(C(=O)O)C4)cc3)nc2)cc1` [Compound 919], the EC50 under setting [2] is 5000 to 10000 nM.

Regarding `CCCCCCCOc1ccc(-c2cnc(-c3ccc(C[C@H](NC(=O)c4ccc(C(C)(C)C#N)cc4)C(=O)N[C@H](C)C(=O)O)cc3)nc2)cc1` [Compound 835], the EC50 under setting [2] is 2500 to 5000 nM.

On to `CCCCCCOCC1CCN(c2cnc(-c3ccc(C[C@H](NC(=O)c4ccc(C(C)(C)C)cc4)C(=O)NCCC(=O)O)cc3)nc2)CC1` [Compound 693], for which, under setting [2], the EC50 was 5000 to 10000 nM.
